ChEMBL document CHEMBL4373636, “Synthesis of endolides A and B: naturally occurring N-methylated cyclic tetrapeptides” (Medchemcomm, 2019)

Columns and labels:
[1] = target: 5-hydroxytryptamine receptor 2B (Homo sapiens, UniProt P41595); assay: Binding affinity to 5HT2b (unknown origin)
Vasopressin V1a receptor = Vasopressin V1a receptor (Homo sapiens, UniProt P37288); assay: Binding affinity to vasopressin 1A receptor (unknown origin)
Chain of Vasopressin V1a receptor (P37288 whole entry): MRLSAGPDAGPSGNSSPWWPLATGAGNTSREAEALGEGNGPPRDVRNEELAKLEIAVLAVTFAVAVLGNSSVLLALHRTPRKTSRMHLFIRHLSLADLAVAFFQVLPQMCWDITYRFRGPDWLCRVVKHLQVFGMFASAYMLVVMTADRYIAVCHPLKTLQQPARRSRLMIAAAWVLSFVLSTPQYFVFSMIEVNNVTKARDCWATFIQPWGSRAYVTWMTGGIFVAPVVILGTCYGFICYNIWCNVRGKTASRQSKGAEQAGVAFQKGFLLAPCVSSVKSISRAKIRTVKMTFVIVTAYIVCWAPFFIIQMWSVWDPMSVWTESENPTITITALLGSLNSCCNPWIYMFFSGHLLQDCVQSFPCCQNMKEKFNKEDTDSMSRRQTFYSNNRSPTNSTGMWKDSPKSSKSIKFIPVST

Chain of 5-hydroxytryptamine receptor 2B (P41595 whole entry): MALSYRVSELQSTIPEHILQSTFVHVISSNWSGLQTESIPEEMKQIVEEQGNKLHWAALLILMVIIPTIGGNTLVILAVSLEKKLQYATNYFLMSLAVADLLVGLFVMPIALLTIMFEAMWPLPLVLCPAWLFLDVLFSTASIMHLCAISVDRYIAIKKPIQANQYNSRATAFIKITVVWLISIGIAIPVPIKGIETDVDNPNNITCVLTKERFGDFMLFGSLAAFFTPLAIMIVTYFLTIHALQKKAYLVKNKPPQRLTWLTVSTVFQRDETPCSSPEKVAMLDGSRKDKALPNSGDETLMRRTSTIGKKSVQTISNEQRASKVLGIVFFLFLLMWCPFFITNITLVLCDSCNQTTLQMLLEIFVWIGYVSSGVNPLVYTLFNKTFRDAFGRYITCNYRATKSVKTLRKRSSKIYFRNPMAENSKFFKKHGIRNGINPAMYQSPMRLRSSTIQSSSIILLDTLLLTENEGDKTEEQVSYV

Compound | Ki [1] [µM] | Ki (Vasopressin V1a receptor) [µM]
CC(C)[C@@H]1NC(=O)[C@H](Cc2ccoc2)N(C)C(=O)[C@H](Cc2ccoc2)NC(=O)[C@H](Cc2ccoc2)N(C)C1=O | 0.77 | –
CC(C)C[C@@H]1NC(=O)[C@H](Cc2ccoc2)N(C)C(=O)[C@H](C(C)C)NC(=O)[C@H](Cc2ccoc2)N(C)C1=O | – | 7.04
